The source of these data is patent US20260269287A1, “ALL-NONAQUEOUS MEMBRANE-FREE FLOW BATTERIES” (University of Cincinnati, priority 2023, published 2026).

Entries after “also recorded” stand apart in the source; their conditions may differ.

Holding throughout (format): physicochemical
Data set [1] can be described thus: 1H NMR stability of C3-PTZ and CP at room temperature and 60° C. Conditions: over 10 days at 25° C. and 60° C., CD3CN. As for the experimental part: The ^1H NMR spectra were recorded on a Bruker AV400 spectrometer (400 MHz). The chemical shifts were reported in ppm. To determine if CP or C3PTZ had crossed through the biphasic layer, we extracted […] samples from anolyte before and after subjecting the system to extended charge/discharge cycles (~100 cycles). These […] samples were subjected to 1H NMR analysis by combining them with […] of CD3CN, resulting in a total NMR solvent volume of […]. In addition, we followed specific sample preparation procedures to assess the stability of CP and C3-PTZ using ^1H NMR. Approximately 5 mg of either solid CP or C3-PTZ was mixed with […] of CD3CN to create NMR samples. Two NMR samples were prepared for each compound in NMR tubes equipped with J. Young air-inlet valves. Firstly, we recorded ^1H NMR spectra for these NMR samples, after which we stored one NMR tube of each sample at room temperature while the other was placed at 60° C. Subsequently, we collected a series of ^1H NMR spectra at 24-h intervals for 10 days using these samples.

Data set [2] in a line: Solubility test in 1.5 M LiClO4/FEC. As to conditions: average of repeated tests. As for the experimental part: Solubility test. A solution of 1.5 M LiClO4/FEC was used for the solubility measurements. The solution was gradually added to a vial containing known amounts of the organic compounds used as the catholytes (Tri-TEMPO, C3-PTZ, and CP). Once a clear solution was obtained, the volume of the electrolyte was determined using an analytical pipette. The solubilities of the organic compounds were calculated from the ratio of the molar amount to the electrolyte volume. These steps were repeated twice, and the average values are presented.
Solubility test. A solution of 1.5 M LiClO4/FEC was used for the solubility measurements. The solution was gradually added to a vial containing known amounts of the organic compounds used as the catholytes (Tri-TEMPO, C3-PTZ, and CP). Once a clear solution was obtained, the volume of the electrolyte was determined using an analytical pipette. The solubilities of the organic compounds were calculated from the ratio of the molar amount to the electrolyte volume. These processes were repeated twice, and the average values are presented.
Solubility Test. A solution of FEC/LiClO4 (1.5 M) was used for the solubility measurements under an inert argon atmosphere at a temperature of 27° C. The solution was gradually added to a vial containing known amounts of the organic compounds used as the catholytes (Tri-TEMPO, C3-PTZ, and CP). Once a clear solution was obtained, the volume (50 μL) of the electrolyte was determined using an analytical pipette (P20). The solubilities of the organic compounds were calculated from the ratio of the molar amount to the electrolyte volume. These processes were repeated twice, and the average values are presented.

A short description of data set [3]: Screening of cathode materials: solubilities in both phases of the FEC/BMP-TFSI nonaqueous biphasic system. As to conditions: for solubility in FEC (catholyte): FEC / cathode electrolyte FEC/LiClO4; for affinity towards the anolyte: anode electrolyte BMP-TFSI/LiTFSI. As for the experimental part: (§1) To explore catholyte materials that meet these solubility requirements, eleven organic compounds were selected, and their solubilities in both phases of the NBS were tested. These materials included derivatives of phenothiazine, cyclopropenium, 2,2,6,6-tetramethylpiperidinyloxy (TEMPO), anthraquinone (AQ), and ferrocene (FIG. 9).
(§2) To explore catholyte materials that meet these solubility requirements, eleven organic compounds were selected, and their solubilities in both phases of the NBS were tested. These materials included derivatives of phenothiazine, cyclopropenium 2,2,6,6-tetramethylpiperidinyloxy (TEMPO), anthraquinone (AQ), and ferrocene (FIG. 33). […] The solubilities of Tri-TEMPO, C3-PTZ, and CP in 1.5 M FEC/LiClO4 were ~1.2 M, ~1 M, and 1.8 M, respectively.
(§3) To explore catholyte materials that meet these solubility requirements, eleven organic compounds were selected, and their solubilities in both phases of the NBS were tested. These materials included derivatives of phenothiazine, cyclopropenium, 2,2,6,6-tetramethylpiperidinyloxy (TEMPO), anthraquinone (AQ), and ferrocene (FIGS. 33 and 102). […] The solubilities of Tri-TEMPO, C3-PTZ, and CP in […] (1.5 M) were ~1.2 M, ~1 M, and 1.8 M, respectively.

A short description of data set [4]: Crossover in the biphasic system under static conditions (UV-visible spectroscopy and CV). Conditions: 15 days, 0.5 M redox material, FEC/BMP-TFSI biphasic system. As for the experimental part: as §1, §2, §3
Physiochemical Characterization. The UV-visible absorption spectra were recorded using a UV-visible spectrophotometer (Cary 8454 UV-Vis, Agilent Technologies). To perform UV-vis measurements, samples with concentrations below 5 mM were prepared. To achieve this, highly concentrated samples were diluted in an appropriate electrolyte solvent before conducting the UV-vis measurements. For the UV-vis calibration curve, stock solutions of Tri-TEMPO at concentrations of 0.3 M and 0.5 M were prepared in FEC/LiClO4 (1.5 M). These solutions were then further diluted to prepare solutions with concentrations of 1, 2, 3, 4, and 5 mM. In addition, a blank sample containing no redox materials was prepared to measure the UV-vis spectrum. The absorption intensity of the UV-vis spectra at different concentrations was used to construct the UV-vis calibration curve. […]

The nature of data set [5]: Cyclic voltammetry of redox-active cathode materials in 0.1 M LiClO4/FEC. As to conditions: for reversible redox couple potential: 5 mM in 0.1 M LiClO4/FEC; for electrochemical stability on repeated CV cycling: in 0.1 M LiClO4/FEC, 1st vs 2000th cycle at 200 mV/s; for ratio of cathodic peak current (ipc) and anodic peak current (ipa): scan rates 50-200 mV/s. As for the experimental part:
(§4) Electrochemical characterization. CV measurements were performed to evaluate the electrochemical properties of the redox-active materials (Tri-TEMPO, C3-PTZ, and CP) as well as the crossover of the redox-active materials before and after long-term battery cycling. For the CV measurements, 5 mM Tri-TEMPO, 5 mM C3-PTZ, and 5 mM CP solutions were prepared in 0.1 M LiClO4/FEC electrolyte. A 3-mm glassy carbon disk was used as the working electrode and was polished with 5-nm Al2O3 before the measurements. A piece of Pt wire (0.5 mm) was used as the counter electrode while a Ag/Ag^+ electrode was used as the reference electrode.
as §4, with “characterizations.” for “characterization.”, “mM of” for “mM”, “Tri-TEMPO,” for “Tri-TEMPO, 5 mM”, “and” for “and 5 mM”, “FEC/LiClO4” for “LiClO4/FEC”, “5 nm” for “5-nm”
Electrochemical Characterizations. For the CV measurements, 5 mM of Tri-TEMPO, C3-PTZ, and CP solutions were prepared in FEC/LiClO4 (0.1 M) electrolyte. A glassy carbon disk (CHI Instrument, 3 mm) was used as the working electrode and was polished with Al2O3(Pine Research Instrumentation, Inc., […]) before the measurements, where water was used as the solvent to polish the electrode. A piece of Pt wire (Pine Research Instrumentation, Inc., thickness 0.5 mm, purity 99.99%) was used as the counter electrode while an Ag/Ag+ (Fisher Scientific) electrode was used as the reference electrode. The CV measurements were performed using a Bio-Logic potentiostat. Electrochemical impedance spectroscopy (EIS) was performed using a potentiostatic signal spanning from 200 KHz to 100 mHz, with an amplitude of 10 mV. The measurements were conducted under open-circuit voltage (OCV) conditions for a total of 54 data points. The charge/discharge performances were evaluated using Land and Bio-Logic potentiostats.

Data set [6] in a line: 1H and 19F NMR determination of LiTFSI concentration in the TEGDME and NFTTS layers. As to conditions: TEGDME/NFTTS biphasic system after salt-out. As for the experimental part: Physicochemical characterizations. The UV-visible absorption spectra were collected on a UV-visible spectrophotometer (Agilent Technologies, Cary 8454 UV-Vis). To perform UV-visible measurements, dilute samples with concentrations below 5 mM were prepared. To achieve this, highly concentrated samples were diluted in an appropriate electrolyte solvent before conducting the UV-visible measurements. A blank sample containing no redox materials was prepared to measure the UV-visible spectrum. The ^1H and ^19F NMR spectra were recorded on a Bruker AV400 spectrometer (400 MHz). The chemical shifts were reported in ppm. To measure the concentration of LiTFSI in TEGDME and NFTTS layers of the biphasic system, a sample of 10 μL volume was collected from each layer and mixed with 400 μL of CDCl3 for preparing the NMR samples. ^1H NMR spectra were first recorded using these samples, and 50 μL of TBAPF6, as an internal standard, was then added to those samples before performing ^19F NMR.
For Design-I, because the gravimetric densities of the solvents followed the sequence TEGDME<NFTTS<FEC, TEGDME was used as the anolyte for the top layer, NFTTS as the ion-exchange layer in the middle, and FEC as the catholyte in the bottom layer. […] This property poses a challenge in constructing a stable triphasic system with the desired immiscibility between the layers. […]

As to `CCCN1c2ccccc2Sc2ccccc21` [C3-PTZ, N-propyl phenothiazine], the “thermostability by 1H NMR” value in data set [1] is on record as “superior thermostability; also recorded: improved thermo-stability”. The solubility in data set [2] was ~ 1 M. In data set [3], the “solubility in FEC (catholyte)” value is “high solubilities” and the “affinity towards the anolyte” value is reported as “extremely poor affinity”. The “crossover from catholyte to anolyte” value in data set [4] is “Negligible crossover”. For the same compound, in data set [5], the “reversible redox couple potential” value came to 0.33 V vs. Ag/Ag^+; the “electrochemical stability on repeated CV cycling” value (“electrochemical stability” for short) is “high cycling stability”; the “ratio of cathodic peak current (ipc) and anodic peak current (ipa)” value (“ratio of cathodic peak current” below) was approximately 1.
For the compound `CCCCN(CC)c1c(N(CC)CCCC)[c+]1N(CC)CCCC.F[P-](F)(F)(F)(F)F` [CP, tris(dialkylamino)cyclo-propenium], the “thermostability by 1H NMR” value in data set [1] was “superior thermostability; also recorded: improved thermo-stability”. In data set [2], the solubility is reported as 1.8 M. Also, in data set [3], the “solubility in FEC (catholyte)” value is recorded as “high solubilities” and the “affinity towards the anolyte” value is “extremely poor affinity”. Further, in data set [4], the “crossover from catholyte to anolyte” value is “Negligible crossover”. In addition, in data set [5], the “reversible redox couple potential” value is 0.93 V vs. Ag/Ag^+; the “electrochemical stability” value is listed as “high cycling stability”; the “ratio of cathodic peak current” value is approximately 1.
As to `O=S(=O)([N-]S(=O)(=O)C(F)(F)F)C(F)(F)F.[Li+]` [LiTFSI, lithium bis(trifluoromethanesulfonyl)imide], in data set [6], the “concentration of LiTFSI in the NFTTS phase” value came out at 0.14 M and the “concentration of LiTFSI in the TEGDME phase” value is on record as 1 M.
As to `CC1(C)CC(Nc2nc(NC3CC(C)(C)N(OC4CCCCC4)C(C)(C)C3)nc(NC3CC(C)(C)N(OC4CCCCC4)C(C)(C)C3)n2)CC(C)(C)N1OC1CCCCC1` [Tri-TEMPO, 2,4,6-tri-(1-cyclohex-yloxy-4-imino-2,2,6,6-tetramethylpiperidine)-1,3,5-triazine], the solubility in data set [2] is reported as ~ 1.2 M. In data set [3], the “solubility in FEC (catholyte)” value is “high solubilities” and the “affinity towards the anolyte” value is reported as “extremely poor affinity”. Further, the “crossover from catholyte to anolyte” value in data set [4] was “Negligible crossover”. Besides, in data set [5], the “reversible redox couple potential” value is on record as 0.37 V vs. Ag/Ag^+; the “electrochemical stability” value is “high cycling stability”; the “ratio of cathodic peak current” value is reported as approximately 1.

The solubility is the dissolved amount per volume that the medium holds. Higher therefore signals much dissolved substance.
